Data from patent publication US7393871B2, “Anionic and neutral complexes of ruthenium (II) with nitrogen oxide” (Siega S.R.L., priority 2003, dated 2008).
Read-outs that look alike come from different tables or passages of the source.

Legend:
[1] = tested on: MCF-7, a human hormone dependent mammary carcinoma cell line; experiment: Cytotoxicity, cell viability (MTU test) on MCF-7 cells; format: cell-based; details: medium with 5% FCS
Experimental: (§1) The cytotoxicity of the ruthenium complexes prepared in Example 4 and 7 was tested on two significative tumor cell lines: MCF-7, a human hormone dependent mammary carcinoma cell line and TS/A, a murine adenocarcinoma cell line. At day 0 4000 TS/A cells and 5000 MCF-7 cells were sown in 96-welled dishes In 200 μl of culture medium. The culture medium used was RPMI medium supplemented with 10% FCS for the TS/A line and a mixture 1:1 of DMEM and F12 medium supplemented with 10% FCS for MCF-7. At day 1 the culture medium was removed and substituted with an identical medium containing 5% FCS only (control) or 5% FCS and the test compound (complex of example 4 or example 7) at the following concentrations: 0.1 μM, 1 μM, 3 μM, 10 μM, 30 μM, 100 μM, 300 μM, 600 μM and 1000 μM.
(§2) After 24, 48 and 72 hours cell viability was evaluated with a MTU test.

[2] = tested on: TS/A, a murine adenocarcinoma cell line; experiment: Cytotoxicity, cell viability (MTU test) on TS/A cells; format: cell-based; details: medium with 5% FCS
Experimental: as §1, §2

[3] = 24 hours exposure, read-out: IC50 MCF-7 24 hours
[4] = 48 hours exposure, read-out: IC50 MCF-7 48 hours
[5] = 72 hours exposure, read-out: IC50 MCF-7 72 hours
[6] = 24 hours exposure, read-out: IC50 TSA 24 hours
[7] = 48 hours exposure, read-out: IC50 TSA 48 hours
[8] = 72 hours exposure, read-out: IC50 TSA 72 hours

Substance	IC50 [1, 3]	IC50 [1, 4]	IC50 [1, 5]	IC50 [2, 6]	IC50 [2, 7]	IC50 [2, 8]
[Im2H][trans-Ru^IICl4(Im)NO] [Complex of Ex. 7]	532 µM	143 µM	18 µM	141 µM	39 µM	33 µM
[ImH][trans-Ru^IICl4(Me2SO—O)NO] [Complex of Ex. 4]	764 µM	118 µM	26 µM	155 µM	20 µM	17 µM
